# Where two headings read alike, the source gives them in different places.
# What was measured:
# MCF-7 cells [1] = assay: Clonogenic survival assay; format: cell-based, Human; details: Table 2, 0.1 μM-20 μM for 10 days, read-out: MCF-7 (IC50), clonogenic survival
# Procedure: (§1) Human cancer cell lines derived from breast, MCF-7, endocrine-resistant MDA-MB-231, and chemoresistant MCF-7TN-R were cultured in 75 cm^2 culture flasks in DMEM (Invitrogen, Co.) supplemented with 10% FBS (Life Technologies, Inc., Gaithersburg, Md.), basic minimum MEM essential (50×, Invitrogen Co.) and MEM non-essential (100×, Invitrogen, Co.) amino acids, sodium pyruvate (100× Invitrogen Co.), antimicotic-antibiotic (10,000 U/mL penicillin G sodium; 10,000 μg/mL streptomycin sulphate; 25 μg/mL amphotericin B as Fungizone®), and human recombinant insulin (4 mg/mL Invitrogen Co). Culture flasks were maintained in a tissue culture incubator in a humidified atmosphere of 5% CO2 and 95% air at 37° C.
# (§2) MCF-7, MDA-MB-231, or MCF-7TN-R cells were plated in 6-well plates at 1000 cells per well. Twenty-four hours later, cells were treated with varying concentrations of the compound and then monitored microscopically for colony growth. Ten days later the cells were fixed with 3% glutaraldehyde. Following fixation for 15 min, the plates were washed and stained with a 0.4% solution of crystal violet in 20% methanol for 30 min, washed with PBS, and air-dried. Colonies of 30 cells were counted as positive. Results are normalized to percent clonogenic survival from untreated control cells. Statistical analysis of IC50 values were calculated from concentration-response curves using GraphPad Prism 5.0 (Graphpad Software, San Diego, Calif.), using with the equation: Y=Bottom+(Top−bottom)/1+10 Log EC50−X.
# (§3) Compounds II-1, II-2, II-3, II-4, II-5, and II-6 were compared for their inhibitory effect on breast cancer clonogenic survival. Cells were treated with varying concentration of compound, ranging from 0.1 μM-20 μM for 10 days. […] At endpoint, cell colonies were fixed, stained and recorded as percent vehicle control.
# MCF-7TN-R cells [2] = assay: Clonogenic survival assay; format: cell-based, Human; details: Table 2, 0.1 μM-20 μM for 10 days, read-out: MCF-7-TNR (IC50), clonogenic survival
# Procedure: as §1, §2, §3
# MDA-MB-231 cells [3] = assay: Clonogenic survival assay; format: cell-based, Human; details: Table 2, 0.1 μM-20 μM for 10 days, read-out: MDA-MB-231 (IC50), clonogenic survival
# Procedure: as §1, §2, §3
# MCF-7 cells [4] = assay: Apoptosis ELISA assay (Cell Death Detection ELISA, Roche); format: cell-based, Human; details: double the IC50 concentration (ceramide 8.3 μM, II-3 9.4 μM)
# Procedure: The induction of apoptosis by compounds was assayed using the nucleosome ELISA kit (Roche). The kit quantified formation of cytoplasmic histone-associated oligonucleosome DNA fragments resulting from apoptosis. […] The induction of apoptosis was determined by the amount of nucleosomes in the cytoplasm per the manufacturer's protocol. The values are the mean±SE of three independent experiments.
# The ability of compound II-3 to induce apoptosis in MCF-7 cells was tested. Using a Cell Death Detection ELISA (Roche) to assess apoptosis, IC50 was measured for compound II-3 and C8-ceramide.
# [5] = system: MCF10A (normal breast epithelial) cells; assay: Proliferation assay in normal breast epithelial cells; format: cell-based; details: for effect on normal breast epithelial proliferation: MCF10A, even at 100 μM, 24 h
# Procedure: MCF10A cells were treated with varying concentrations of drug (0.1-100 μM) for 24 h. The values are the mean±SE of four independent experiments.
# The selectivity of compound II-3 and C8-ceramide to inhibit cell growth of cancer cells was determined by performing proliferation assays using MCF10A (normal breast epithelial) cells (FIG. 18).
# MCF-7 cells [6] = assay: Cellular sphingolipid species by lipidomics analysis; format: cell-based, Human; details: 10 μM, 24 h
# Procedure: (§4) (A) MCF-7, (B) MDA-MB-231, and (C) MCF-7TN-R cells were treated with ceramide (10 μM) and II-3 (10 μM) for 24 h. The values are the mean±SE of two independent experiments. S2 Endogenous lipid levels were quantified by mass spectrometry (Lipidomics Core, Medical University of South Carolina) according to published methods. Briefly, cells were collected, fortified with internal standards and extracted with ethyl acetate/isopropyl alcohol. ESI/MS/MS analyses of sphingoid bases, sphingoid base 1-phosphates, ceramides, and sphingomyelins were performed on a Thermo Finnigan TSQ 7000 triple quadrupole mass spectrometer.
# (§5) The effect of compound II-3 on endogenous sphingolipid levels was compared to C8-ceramide using Lipidomics Analysis (FIG. 19-21). Dihydrosphingosine is elevated following compound II-3 treatment, with almost a 50 fold increase in MCF-7TN-R cells. Sphingosine-1-phosphate, the proliferative metabolite of ceramide, decreased in all three cell lines. C8-ceramide had the opposite effect and increased sphingosine-1-phosphate levels.
# MCF-7TN-R cells [7] = assay: as above; format: cell-based, Human; details: 10 μM, 24 h
# Procedure: as §4, §5
# MDA-MB-231 cells [8] = assay: as above; format: cell-based, Human; details: 10 μM, 24 h
# Procedure: as §4, §5
# MCF-7 cell line = assay: Proliferation assay; format: cell-based; details: Homo sapiens, MCF7; FIG. 15; read-out: anti-proliferative IC50, MCF-7
# Procedure: (§6) The ability of compound II-3 to block proliferation as an anti-survival mechanism in addition to apoptosis was determined by measuring anti-proliferative effects.
# MDA-MB-231 cell line = assay: Proliferation assay; format: cell-based; details: Homo sapiens, FIG. 16, read-out: anti-proliferative IC50, MDA-MB-231
# Procedure: as §6
# MCF-7TN-R cells [9] = assay: Proliferation assay; format: cell-based; details: Homo sapiens; FIG. 17; read-out: anti-proliferative IC50, MCF-7TN-R
# Procedure: as §6
# Nineteen compounds were synthesized using fifteen benzaldehydes as starting material. […] These were tested as potential anti-proliferative agents in MCF-7TN-R cells, and the structure-activity relationships were studied using several parameters. […] In compounds containing a methyl group, a significant increase of the PAC (C) in o-substituted compound was detected, which may account for the increased anti-proliferation activity. Ortho-substituted analogs with electron withdrawing groups by induction can have beneficial effects, and PAC (C) can be a useful predictor of the structural property of the molecule.
Compound,IC50 (MCF-7 cells [1]),IC50 (MCF-7TN-R cells [2]),IC50 (MDA-MB-231 cells [3]),fold induction in apoptosis (MCF-7 cells [4]; 24 hours),effect on normal breast epithelial proliferation [5],Sphingosine-1-phosphate level (MCF-7 cells [6]),Sphingosine-1-phosphate level (MCF-7TN-R cells [7]),Sphingosine-1-phosphate level (MDA-MB-231 cells [8]),"IC50 (MCF-7 cells [1]; Homo sapiens, MCF7, 240 h)","IC50 (MCF-7TN-R cells [2]; Homo sapiens, 240 h)","IC50 (MDA-MB-231 cells [3]; Homo sapiens, MDA-MB-231, 240 h)","fold induction at 9.4 µM (MCF-7 cells [4]; Homo sapiens, MCF7, 24 hours)",IC50 (MCF-7 cell line),IC50 (MDA-MB-231 cell line),IC50 (MCF-7TN-R cells [9]),100 μM (little effect in MCF10A) as fold of the IC50 value in chemoresistant cells ([5]; MCF10A versus chemoresistant cells),Dihydrosphingosine fold increase (MCF-7TN-R cells [7])
"CCCCCCCCCCCCC/C=C/[C@@H](O)[C@H](CO)NC(=O)CCCCCCC [Compound C8-Cer, D-erythro N-octanoyl sphingosine, reference compound]",4.2 µM,8.6 µM,3 µM,5.0 fold,little effect,increased,increased,increased,–,–,–,–,–,–,–,–,–
"CCCCCCCCCCCCCCNC(=O)[C@H](CO)N=Cc1ccccc1 [II-3, (S)-2-(benzylideneamino)-3-hydroxy-N-tetradecylpropanamide]",4.7 µM,7.7 µM,2.4 µM,–,little effect,decreased,decreased,decreased,4.69 µM,7.67 µM,2.35 µM,5.4,4.5 µM,1.8 µM,1.2 µM,greater than 50 fold,~50 fold

# Source: patent publication US8853452B2, “Compounds, their syntheses, compositions, and methods to treat cancer” (The Administrators of the Tulane Educational Fund, priority 2009, dated 2014)
